Assay results: ChEMBL document CHEMBL1201862, “PubChem BioAssay data set” (2004)
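1) Cells in 96-well plates. 2) Compound, 48 h, 5 concentrations. 3) Linear interpolation between surrounding doses. 4) Unreached endpoint = highest concentration. At the GI50, growth is halved.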 The source made the active and inactive calls. No stated cut-off is given here; in the data, active = GI50 up to about 1.1 µM and inactive = higher.

How the values were obtained:
Assay in all cases: NCI tumour cell line growth inhibition, 48 h
[1] = system: KM-20L2
[2] = system: HL-60
[3] = system: HCT-116
[4] = system: TK-10
[5] = system: M19-MEL
[6] = system: OVCAR-5
[7] = system: OVCAR-4
[8] = system: HOP-62
[9] = system: UACC-257
[10] = system: XF498
[11] = system: M14
[12] = system: UACC-62
[13] = system: HCT-15
[14] = system: ACHN
[15] = system: LXFL 529
[16] = system: MOLT-4
[17] = system: A549
[18] = system: HCC 2998
[19] = system: SK-MEL-28
[20] = system: CCRF-CEM
[21] = system: SK-MEL-2
[22] = system: NCI-H226
[23] = system: SR
[24] = system: SNB-19
[25] = system: DLD-1
[26] = system: U-251
[27] = system: OVCAR-8
[28] = system: DMS-273
[29] = system: RPMI-8226
[30] = system: HOP-92
[31] = system: SF-268
[32] = system: NCI-H23
[33] = system: SK-OV-3
[34] = system: IGROV-1
[35] = system: SNB-75
[36] = system: SNB-78
[37] = system: RXF 631
[38] = system: SW-620
[39] = system: SN12C
[40] = system: RXF 393
[41] = system: NCI-H522
[42] = system: SK-MEL-5
[43] = system: CAKI-1
[44] = system: LOX IMVI
[45] = system: SF-295
[46] = system: NCI-H460
[47] = system: K562
[48] = system: HT-29
[49] = system: COLO 205
[50] = system: EKVX
[51] = system: SF-539
[52] = system: KM12
[53] = system: UO-31
[54] = system: A498
[55] = system: DMS-114
[56] = system: Malme-3M
[57] = system: OVCAR-3
[58] = system: 786-0

CCOc1ccc(NC(=O)C(=O)CC(=O)c2sc(NNC(C)=O)nc2C)cc1
GI50 [1]: > 100 µM (inactive)
GI50 [2]: > 100 µM (inactive)
GI50 [3]: > 100 µM (inactive)
GI50 [4]: > 100 µM (inactive)
GI50 [5]: > 100 µM (inactive)
GI50 [6]: > 100 µM (inactive)
GI50 [7]: > 100 µM (inactive)
GI50 [8]: > 100 µM (inactive)
GI50 [9]: > 100 µM (inactive)
GI50 [10]: > 100 µM (inactive)
GI50 [11]: > 100 µM (inactive)
GI50 [12]: > 100 µM (inactive)
GI50 [13]: > 100 µM
GI50 [14]: > 100 µM (inactive)
GI50 [15]: > 100 µM (inactive)
GI50 [16]: > 100 µM (inactive)
GI50 [17]: > 100 µM (inactive)
GI50 [18]: > 100 µM (inactive)
GI50 [19]: > 100 µM (inactive)
GI50 [20]: > 100 µM (inactive)
GI50 [21]: > 100 µM (inactive)
GI50 [22]: > 100 µM (inactive)
GI50 [23]: > 100 µM (inactive)
GI50 [24]: > 100 µM (inactive)
GI50 [25]: > 100 µM (inactive)
GI50 [26]: > 100 µM (inactive)
GI50 [27]: > 100 µM (inactive)
GI50 [28]: > 100 µM (inactive)
GI50 [29]: > 100 µM (inactive)
GI50 [30]: > 100 µM (inactive)
GI50 [31]: > 100 µM (inactive)
GI50 [32]: > 100 µM (inactive)
GI50 [33]: > 100 µM (inactive)
GI50 [34]: > 100 µM (inactive)
GI50 [35]: > 100 µM (inactive)
GI50 [36]: > 100 µM (inactive)
GI50 [37]: > 100 µM (inactive)
GI50 [38]: > 100 µM (inactive)
GI50 [39]: > 100 µM (inactive)
GI50 [40]: > 100 µM (inactive)
GI50 [41]: > 100 µM (inactive)
GI50 [42]: > 100 µM (inactive)
GI50 [43]: > 100 µM (inactive)
GI50 [44]: > 100 µM (inactive)
GI50 [45]: > 100 µM (inactive)
GI50 [46]: > 100 µM (inactive)
GI50 [47]: > 100 µM (inactive)
GI50 [48]: > 100 µM (inactive)
GI50 [49]: > 100 µM (inactive)
GI50 [50]: 40.9 µM (inactive)
GI50 [51]: > 100 µM (inactive)
GI50 [52]: > 100 µM (inactive)
GI50 [53]: > 100 µM (inactive)
GI50 [54]: > 100 µM (inactive)

CNC(=O)NCCCCC(NC(=O)OCc1ccccc1)C(=O)OCc1ccccc1 (stereo unspecified)
GI50 [1]: > 100 µM (inactive)
GI50 [2]: 16.8 µM (inactive)
GI50 [3]: 51.6 µM (inactive)
GI50 [4]: 21.9 µM (inactive)
GI50 [5]: 21.8 µM (inactive)
GI50 [55]: 23.6 µM (inactive)
GI50 [6]: 46 µM (inactive)
GI50 [7]: 22.3 µM (inactive)
GI50 [8]: 8.81 µM (inactive)
GI50 [9]: 18.6 µM (inactive)
GI50 [10]: 18.3 µM (inactive)
GI50 [11]: 16.5 µM (inactive)
GI50 [12]: 21.5 µM (inactive)
GI50 [13]: > 100 µM
GI50 [14]: 19.1 µM (inactive)
GI50 [15]: 32.1 µM (inactive)
GI50 [16]: 20.8 µM (inactive)
GI50 [17]: 31.6 µM (inactive)
GI50 [18]: 20.3 µM (inactive)
GI50 [19]: 21.1 µM (inactive)
GI50 [20]: 17.9 µM (inactive)
GI50 [21]: 22 µM (inactive)
GI50 [22]: 60.3 µM (inactive)
GI50 [23]: 27.4 µM (inactive)
GI50 [24]: > 100 µM (inactive)
GI50 [25]: 38.2 µM (inactive)
GI50 [26]: 23.9 µM (inactive)
GI50 [27]: 29.4 µM (inactive)
GI50 [56]: 14.4 µM (inactive)
GI50 [28]: 48.8 µM (inactive)
GI50 [29]: 24.2 µM (inactive)
GI50 [30]: 36 µM (inactive)
GI50 [32]: 29.3 µM (inactive)
GI50 [33]: > 100 µM (inactive)
GI50 [34]: 28.1 µM (inactive)
GI50 [35]: 20.2 µM (inactive)
GI50 [36]: 25.4 µM (inactive)
GI50 [37]: 23.6 µM (inactive)
GI50 [38]: > 100 µM (inactive)
GI50 [39]: 24.2 µM (inactive)
GI50 [40]: 16.4 µM (inactive)
GI50 [41]: 14.5 µM (inactive)
GI50 [57]: 16.1 µM (inactive)
GI50 [42]: 48.6 µM (inactive)
GI50 [58]: 17.5 µM (inactive)
GI50 [43]: 23.7 µM (inactive)
GI50 [44]: 16.7 µM (inactive)
GI50 [45]: 20.6 µM (inactive)
GI50 [46]: 31.7 µM (inactive)
GI50 [47]: 44.3 µM (inactive)
GI50 [48]: 71.4 µM (inactive)
GI50 [49]: 17.7 µM (inactive)
GI50 [50]: 98.9 µM (inactive)
GI50 [51]: 19 µM (inactive)
GI50 [52]: 29.9 µM (inactive)
GI50 [53]: 18.2 µM (inactive)
GI50 [54]: > 100 µM (inactive)
